Assay results: patent US5456923A, “Method of manufacturing solid dispersion” (priority 1991, dated 1995)
≈ marks a conversion by molar mass, not a printed value. Where a name gives a salt, the structure may show the parent alone.

Test: physchem
Settings: jp test solution 2
Description: Test method: Saturation dissolution method
Test conditions: Constanttemperature bath (25° C.)
Ultracentrifugation: 40000 rpm × 1 hr; the supernatant analyzed by

solubility at 24 h [µg/mL] | SMILES
8.5 | COC(=O)C1=C(C)NC(C)=C(C(=O)OCCN(C)Cc2ccccc2)C1c1cccc([N+](=O)[O-])c1 (centres unmarked) [nicardipine hydrochloride]
36.5 (≈ 89.4 µM) | COC(=O)C1=C(C)NC(C)=C(P2(=O)OCCCO2)C1c1ccccc1[N+](=O)[O-] (centres unmarked) [Compound A, methyl 2,6-dimethyl-4-(2-nitrophenyl)-5-(2-oxo-1,3,2-dioxaphosphorinan-2-yl)-1,4-dihydropyridine-3-carboxylate]
